Measured values reported in ChEMBL document CHEMBL5291721, “A preclinical secondary pharmacology resource illuminates target-adverse drug reaction associations of marketed drugs” (Nat Commun, 2023).

What was measured:
Acetylcholinesterase = Acetylcholinesterase (Homo sapiens, UniProt P22303); type: functional
[1] = biological target: T1, Alpha-1A adrenergic receptor (Homo sapiens, UniProt P35348); type: functional, cell-based
T1 sequence (P35348 whole entry): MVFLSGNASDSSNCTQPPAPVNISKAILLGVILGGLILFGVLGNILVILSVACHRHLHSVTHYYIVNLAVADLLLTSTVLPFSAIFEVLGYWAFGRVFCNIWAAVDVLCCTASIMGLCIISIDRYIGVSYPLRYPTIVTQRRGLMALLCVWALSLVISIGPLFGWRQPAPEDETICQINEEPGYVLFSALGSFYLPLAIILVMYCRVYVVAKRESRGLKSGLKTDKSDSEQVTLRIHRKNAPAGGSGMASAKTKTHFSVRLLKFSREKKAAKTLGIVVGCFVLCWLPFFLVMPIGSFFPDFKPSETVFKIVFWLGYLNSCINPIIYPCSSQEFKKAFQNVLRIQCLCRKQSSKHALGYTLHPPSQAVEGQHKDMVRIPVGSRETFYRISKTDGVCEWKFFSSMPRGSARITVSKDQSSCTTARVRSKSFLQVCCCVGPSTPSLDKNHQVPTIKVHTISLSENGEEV

[2] = biological target: T2, Alpha-2A adrenergic receptor (Homo sapiens, UniProt P08913)
T2 sequence (P08913 whole entry): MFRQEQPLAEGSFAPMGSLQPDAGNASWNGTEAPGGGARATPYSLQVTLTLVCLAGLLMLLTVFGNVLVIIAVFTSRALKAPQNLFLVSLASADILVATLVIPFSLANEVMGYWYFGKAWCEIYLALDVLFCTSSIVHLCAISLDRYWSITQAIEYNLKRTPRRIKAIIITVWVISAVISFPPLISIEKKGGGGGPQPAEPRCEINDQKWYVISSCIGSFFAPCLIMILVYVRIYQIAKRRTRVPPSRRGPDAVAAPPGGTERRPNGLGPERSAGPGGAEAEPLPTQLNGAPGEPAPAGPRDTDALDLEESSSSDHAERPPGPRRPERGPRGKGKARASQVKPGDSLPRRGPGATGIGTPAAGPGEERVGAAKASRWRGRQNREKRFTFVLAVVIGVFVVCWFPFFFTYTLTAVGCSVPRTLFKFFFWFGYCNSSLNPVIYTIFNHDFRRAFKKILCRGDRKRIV

[3] = biological target: T3, Muscarinic acetylcholine receptor M2 (Homo sapiens, UniProt P08172)
T3 sequence (P08172 whole entry): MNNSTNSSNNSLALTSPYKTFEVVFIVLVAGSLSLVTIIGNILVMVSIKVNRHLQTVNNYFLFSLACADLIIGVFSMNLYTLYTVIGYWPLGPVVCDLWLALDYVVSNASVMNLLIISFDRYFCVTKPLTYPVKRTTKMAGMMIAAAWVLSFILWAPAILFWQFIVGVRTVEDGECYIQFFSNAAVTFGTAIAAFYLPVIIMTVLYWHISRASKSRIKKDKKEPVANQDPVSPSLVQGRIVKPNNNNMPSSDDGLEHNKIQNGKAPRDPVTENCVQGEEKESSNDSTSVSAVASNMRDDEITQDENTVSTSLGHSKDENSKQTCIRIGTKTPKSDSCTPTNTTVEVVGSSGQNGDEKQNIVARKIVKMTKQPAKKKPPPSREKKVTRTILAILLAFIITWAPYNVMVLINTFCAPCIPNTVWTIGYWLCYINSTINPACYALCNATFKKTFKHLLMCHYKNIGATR

D(1A) dopamine receptor = D(1A) dopamine receptor (Homo sapiens, UniProt P21728)
Prothrombin = Prothrombin (Homo sapiens, UniProt P00734); type: functional
Histamine H3 receptor = Histamine H3 receptor (Homo sapiens, UniProt Q9Y5N1)
Histamine H3 receptor, sequence (Q9Y5N1 whole entry): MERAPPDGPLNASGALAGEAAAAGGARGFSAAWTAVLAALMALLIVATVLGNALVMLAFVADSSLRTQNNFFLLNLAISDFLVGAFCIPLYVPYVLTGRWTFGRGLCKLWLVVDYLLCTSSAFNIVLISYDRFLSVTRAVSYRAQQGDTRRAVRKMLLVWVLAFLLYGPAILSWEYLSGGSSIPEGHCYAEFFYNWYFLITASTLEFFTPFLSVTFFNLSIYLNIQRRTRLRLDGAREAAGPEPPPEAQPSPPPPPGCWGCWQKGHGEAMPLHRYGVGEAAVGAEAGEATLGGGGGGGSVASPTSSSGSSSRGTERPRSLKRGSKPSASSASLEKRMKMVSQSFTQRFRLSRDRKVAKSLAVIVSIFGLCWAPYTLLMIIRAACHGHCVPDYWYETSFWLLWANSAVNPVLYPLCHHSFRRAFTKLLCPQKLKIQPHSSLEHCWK

[4] = biological target: 5-hydroxytryptamine receptor 2B (Homo sapiens, UniProt P41595); type: functional, cell-based
[5] = biological target: Voltage-gated inwardly rectifying potassium channel KCNH2 (Homo sapiens, UniProt Q12809); type: functional
Voltage-gated inwardly rectifying potassium channel KCNH2, sequence (Q12809 whole entry): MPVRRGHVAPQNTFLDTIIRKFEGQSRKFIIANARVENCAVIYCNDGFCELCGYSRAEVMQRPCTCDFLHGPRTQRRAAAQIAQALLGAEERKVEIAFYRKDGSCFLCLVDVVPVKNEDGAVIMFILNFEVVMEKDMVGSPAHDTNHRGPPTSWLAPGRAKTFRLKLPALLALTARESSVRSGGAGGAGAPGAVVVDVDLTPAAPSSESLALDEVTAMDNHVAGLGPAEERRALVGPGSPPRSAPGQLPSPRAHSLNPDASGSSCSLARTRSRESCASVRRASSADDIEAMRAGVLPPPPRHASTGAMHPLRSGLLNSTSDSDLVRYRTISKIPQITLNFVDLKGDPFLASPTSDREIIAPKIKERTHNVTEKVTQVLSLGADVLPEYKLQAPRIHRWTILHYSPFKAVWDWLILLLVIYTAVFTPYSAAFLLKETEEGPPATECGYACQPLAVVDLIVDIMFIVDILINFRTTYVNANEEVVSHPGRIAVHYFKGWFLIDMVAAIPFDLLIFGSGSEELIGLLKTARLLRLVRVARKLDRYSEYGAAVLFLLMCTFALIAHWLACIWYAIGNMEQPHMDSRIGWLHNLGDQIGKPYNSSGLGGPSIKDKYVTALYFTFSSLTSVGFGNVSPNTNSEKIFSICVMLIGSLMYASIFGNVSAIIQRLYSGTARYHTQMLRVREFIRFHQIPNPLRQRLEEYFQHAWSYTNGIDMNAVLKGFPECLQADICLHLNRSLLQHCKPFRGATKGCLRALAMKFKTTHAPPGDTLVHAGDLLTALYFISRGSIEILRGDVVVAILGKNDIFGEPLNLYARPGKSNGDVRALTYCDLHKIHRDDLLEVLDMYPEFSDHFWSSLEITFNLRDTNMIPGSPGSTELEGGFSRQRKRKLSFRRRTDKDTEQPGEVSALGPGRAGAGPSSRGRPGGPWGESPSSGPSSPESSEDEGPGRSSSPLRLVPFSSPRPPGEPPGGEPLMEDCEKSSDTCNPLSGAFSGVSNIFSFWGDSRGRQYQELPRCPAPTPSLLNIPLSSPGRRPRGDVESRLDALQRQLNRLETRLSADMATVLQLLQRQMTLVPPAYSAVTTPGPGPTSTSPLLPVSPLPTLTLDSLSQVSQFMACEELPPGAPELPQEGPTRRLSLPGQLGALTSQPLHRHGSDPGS

Mu-type opioid receptor = Mu-type opioid receptor (Homo sapiens, UniProt P35372)
Mu-type opioid receptor, sequence (P35372 whole entry): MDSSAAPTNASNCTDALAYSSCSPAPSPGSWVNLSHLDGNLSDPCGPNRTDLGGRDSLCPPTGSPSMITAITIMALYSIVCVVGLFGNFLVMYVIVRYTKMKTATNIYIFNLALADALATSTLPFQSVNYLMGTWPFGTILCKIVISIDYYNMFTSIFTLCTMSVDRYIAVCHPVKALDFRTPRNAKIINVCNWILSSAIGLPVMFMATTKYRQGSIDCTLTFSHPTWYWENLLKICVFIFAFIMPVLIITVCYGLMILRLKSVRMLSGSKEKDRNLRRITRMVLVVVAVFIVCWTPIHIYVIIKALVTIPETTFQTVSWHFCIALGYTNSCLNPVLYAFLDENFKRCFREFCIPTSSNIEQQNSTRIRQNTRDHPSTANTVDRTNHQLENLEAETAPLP

[6] = biological target: cGMP-inhibited 3',5'-cyclic phosphodiesterase 3A (Homo sapiens, UniProt Q14432); type: functional
[7] = biological target: 3',5'-cyclic-AMP phosphodiesterase 4A (Homo sapiens, UniProt P27815); type: functional
3',5'-cyclic-AMP phosphodiesterase 4A, sequence (P27815 whole entry): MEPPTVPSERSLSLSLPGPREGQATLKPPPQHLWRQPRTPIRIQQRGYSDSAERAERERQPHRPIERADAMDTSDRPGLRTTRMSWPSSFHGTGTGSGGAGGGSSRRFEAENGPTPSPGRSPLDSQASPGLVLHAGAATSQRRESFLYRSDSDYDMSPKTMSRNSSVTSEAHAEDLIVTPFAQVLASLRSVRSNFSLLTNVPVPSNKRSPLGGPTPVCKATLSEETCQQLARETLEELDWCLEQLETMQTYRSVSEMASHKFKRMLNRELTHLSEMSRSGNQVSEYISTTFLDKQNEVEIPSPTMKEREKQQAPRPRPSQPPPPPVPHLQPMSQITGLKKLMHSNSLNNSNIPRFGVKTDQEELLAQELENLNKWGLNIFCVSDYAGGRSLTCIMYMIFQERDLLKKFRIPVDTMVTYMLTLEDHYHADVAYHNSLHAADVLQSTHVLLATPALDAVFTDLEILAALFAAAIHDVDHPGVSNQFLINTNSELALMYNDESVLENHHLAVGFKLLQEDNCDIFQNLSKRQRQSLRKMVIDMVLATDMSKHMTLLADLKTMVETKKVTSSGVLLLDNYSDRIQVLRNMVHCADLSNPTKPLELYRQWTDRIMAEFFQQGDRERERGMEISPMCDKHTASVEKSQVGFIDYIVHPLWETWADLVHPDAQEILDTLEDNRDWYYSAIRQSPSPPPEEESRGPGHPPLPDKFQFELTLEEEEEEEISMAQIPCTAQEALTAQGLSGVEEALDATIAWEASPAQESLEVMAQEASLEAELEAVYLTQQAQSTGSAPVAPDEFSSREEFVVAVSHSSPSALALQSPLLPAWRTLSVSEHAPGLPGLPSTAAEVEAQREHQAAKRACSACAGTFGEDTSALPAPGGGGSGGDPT

Progesterone receptor = biological target: T4, Progesterone receptor (Homo sapiens, UniProt P06401)
T4 sequence (P06401 whole entry): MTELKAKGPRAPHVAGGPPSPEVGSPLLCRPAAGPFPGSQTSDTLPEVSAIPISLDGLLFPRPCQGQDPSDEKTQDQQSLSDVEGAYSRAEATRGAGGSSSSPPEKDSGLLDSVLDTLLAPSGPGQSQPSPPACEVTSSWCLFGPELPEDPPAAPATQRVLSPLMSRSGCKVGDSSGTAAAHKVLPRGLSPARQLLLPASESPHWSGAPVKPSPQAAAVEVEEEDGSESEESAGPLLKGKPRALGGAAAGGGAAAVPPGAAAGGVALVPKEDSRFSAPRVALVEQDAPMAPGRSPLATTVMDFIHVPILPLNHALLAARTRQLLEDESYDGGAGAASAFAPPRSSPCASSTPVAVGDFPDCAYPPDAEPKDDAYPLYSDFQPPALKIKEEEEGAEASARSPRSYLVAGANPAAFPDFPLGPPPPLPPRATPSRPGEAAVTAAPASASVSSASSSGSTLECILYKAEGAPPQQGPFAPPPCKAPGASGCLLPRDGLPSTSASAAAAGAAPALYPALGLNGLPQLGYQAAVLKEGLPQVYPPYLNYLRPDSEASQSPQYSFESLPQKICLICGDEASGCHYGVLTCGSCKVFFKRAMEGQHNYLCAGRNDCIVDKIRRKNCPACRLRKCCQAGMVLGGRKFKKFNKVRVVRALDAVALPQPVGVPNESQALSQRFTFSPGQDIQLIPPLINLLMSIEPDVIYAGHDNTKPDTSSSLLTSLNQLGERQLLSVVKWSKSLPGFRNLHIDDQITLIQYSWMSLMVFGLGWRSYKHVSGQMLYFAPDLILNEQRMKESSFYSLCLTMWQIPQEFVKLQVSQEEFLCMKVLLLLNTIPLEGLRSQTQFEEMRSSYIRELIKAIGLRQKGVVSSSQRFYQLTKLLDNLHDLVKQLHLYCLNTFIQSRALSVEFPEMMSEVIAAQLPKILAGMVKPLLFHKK

[8] = biological target: Prostaglandin G/H synthase 1 (Homo sapiens, UniProt P23219); type: functional
Prostaglandin G/H synthase 1, sequence (P23219 whole entry): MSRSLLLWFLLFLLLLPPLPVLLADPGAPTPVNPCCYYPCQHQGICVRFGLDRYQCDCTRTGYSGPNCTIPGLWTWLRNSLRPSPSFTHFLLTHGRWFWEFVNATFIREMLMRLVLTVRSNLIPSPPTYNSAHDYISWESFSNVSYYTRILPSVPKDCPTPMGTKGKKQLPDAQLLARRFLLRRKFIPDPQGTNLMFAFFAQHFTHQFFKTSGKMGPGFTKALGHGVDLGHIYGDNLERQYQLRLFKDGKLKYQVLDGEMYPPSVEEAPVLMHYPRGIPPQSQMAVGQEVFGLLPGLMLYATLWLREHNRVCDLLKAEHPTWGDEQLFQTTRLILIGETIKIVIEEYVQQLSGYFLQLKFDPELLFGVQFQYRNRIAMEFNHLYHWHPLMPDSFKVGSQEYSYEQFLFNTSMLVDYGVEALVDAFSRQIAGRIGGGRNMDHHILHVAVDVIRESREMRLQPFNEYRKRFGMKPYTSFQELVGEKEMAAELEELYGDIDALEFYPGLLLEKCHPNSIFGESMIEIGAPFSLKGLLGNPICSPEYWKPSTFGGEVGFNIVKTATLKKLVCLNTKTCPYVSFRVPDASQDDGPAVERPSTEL

[9] = biological target: Sodium-dependent dopamine transporter (Homo sapiens, UniProt Q01959)
Sodium-dependent dopamine transporter, sequence (Q01959 whole entry): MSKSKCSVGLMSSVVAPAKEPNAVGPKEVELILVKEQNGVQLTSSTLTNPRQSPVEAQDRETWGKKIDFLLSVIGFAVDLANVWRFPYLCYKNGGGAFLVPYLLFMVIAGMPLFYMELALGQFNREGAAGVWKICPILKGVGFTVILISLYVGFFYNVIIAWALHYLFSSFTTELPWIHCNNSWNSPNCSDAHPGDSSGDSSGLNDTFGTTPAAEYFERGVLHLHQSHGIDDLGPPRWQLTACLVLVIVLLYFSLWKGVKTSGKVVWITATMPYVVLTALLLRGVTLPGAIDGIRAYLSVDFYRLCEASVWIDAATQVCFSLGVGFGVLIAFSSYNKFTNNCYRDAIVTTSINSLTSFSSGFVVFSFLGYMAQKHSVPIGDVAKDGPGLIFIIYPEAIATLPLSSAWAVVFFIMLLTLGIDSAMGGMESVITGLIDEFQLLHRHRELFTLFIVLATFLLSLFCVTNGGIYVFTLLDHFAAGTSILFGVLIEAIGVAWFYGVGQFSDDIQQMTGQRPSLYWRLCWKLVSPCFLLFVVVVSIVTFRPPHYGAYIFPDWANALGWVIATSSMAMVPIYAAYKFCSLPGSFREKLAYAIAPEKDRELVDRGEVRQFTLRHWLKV
Note: assay procedure not described here.

Acetylcholinesterase, sequence (P22303 whole entry): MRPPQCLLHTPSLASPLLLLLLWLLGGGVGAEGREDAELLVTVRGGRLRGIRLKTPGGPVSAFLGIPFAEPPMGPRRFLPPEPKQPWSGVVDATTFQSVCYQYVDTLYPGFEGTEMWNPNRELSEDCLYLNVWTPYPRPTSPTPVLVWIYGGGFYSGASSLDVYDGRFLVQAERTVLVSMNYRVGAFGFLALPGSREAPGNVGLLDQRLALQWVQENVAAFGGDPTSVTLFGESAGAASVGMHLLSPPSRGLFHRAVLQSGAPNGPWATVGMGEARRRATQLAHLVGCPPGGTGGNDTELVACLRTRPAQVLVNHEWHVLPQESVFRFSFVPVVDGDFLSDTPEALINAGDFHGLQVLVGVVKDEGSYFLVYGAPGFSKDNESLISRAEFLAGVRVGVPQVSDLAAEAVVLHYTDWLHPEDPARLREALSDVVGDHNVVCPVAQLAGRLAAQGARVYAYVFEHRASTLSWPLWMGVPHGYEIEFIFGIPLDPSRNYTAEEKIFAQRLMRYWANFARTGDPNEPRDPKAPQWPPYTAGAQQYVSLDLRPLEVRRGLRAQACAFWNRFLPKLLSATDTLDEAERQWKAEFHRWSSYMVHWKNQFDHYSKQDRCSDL

Row | Compound | AC50 (Acetylcholinesterase) | AC50 [1] | AC50 [2] | AC50 [3] | AC50 (D(1A) dopamine receptor) | AC50 (Prothrombin) | AC50 (Histamine H3 receptor) | AC50 [4] | AC50 [5] | AC50 (Mu-type opioid receptor) | AC50 [6] | AC50 [7] | AC50 (Progesterone receptor) | AC50 [8] | AC50 [9]
1 | Cc1ccsc1C(=CCCN1CCC[C@@H](C(=O)O)C1)c1sccc1C [TIAGABINE] | > 30 µM | > 30 µM | > 30 µM | > 30 µM | > 30 µM | > 30 µM | > 30 µM | > 30 µM | > 30 µM | > 30 µM | > 30 µM | 23.6 µM | > 30 µM | 24.4 µM | > 30 µM
2 | Cc1ccc(C(=O)c2ccc(CC(=O)O)n2C)cc1 [TOLMETIN] | > 30 µM | > 30 µM | > 30 µM | > 30 µM | > 30 µM | > 30 µM | > 30 µM | > 30 µM | > 30 µM | > 30 µM | > 30 µM | > 30 µM | > 30 µM | 0.081 µM | > 30 µM
3 | Cc1ccccc1C(=O)Nc1ccc(C(=O)N2CCCC(O)c3cc(Cl)ccc32)c(C)c1 (stereo not given) [TOLVAPTAN] | > 30 µM | > 30 µM | > 30 µM | > 30 µM | > 30 µM | > 30 µM | > 30 µM | > 30 µM | > 30 µM | 6.71 µM | > 30 µM | > 30 µM | > 30 µM | > 30 µM | > 30 µM
4 | C[C@]12C=CC(=O)C=C1CC[C@H]1[C@@H]3C[C@@H](O)[C@](O)(C(=O)CO)[C@@]3(C)C[C@H](O)[C@@]12F [TRIAMCINOLONE] | > 30 µM | > 30 µM | > 30 µM | > 30 µM | > 30 µM | > 30 µM | > 30 µM | > 30 µM | > 30 µM | > 30 µM | > 30 µM | > 30 µM | 19.7 µM | > 30 µM | > 30 µM
5 | CC[C@]12CCCN3CCc4c(n(c5ccccc45)[C@@](O)(C(=O)OC)C1)[C@@H]32 [VINCAMINE] | > 30 µM | > 30 µM | > 30 µM | > 30 µM | > 30 µM | > 30 µM | > 30 µM | > 30 µM | 0.46 µM | > 30 µM | > 30 µM | > 30 µM | > 30 µM | > 30 µM | > 30 µM
6 | CCC1=C[C@@H]2CN(C1)Cc1c([nH]c3ccccc13)[C@@](C(=O)OC)(c1cc3c(cc1OC)N(C)[C@H]1[C@@](O)(C(=O)OC)[C@H](OC(C)=O)[C@]4(CC)C=CCN5CC[C@]31[C@@H]54)C2 [VINORELBINE] | > 30 µM | > 30 µM | > 30 µM | > 30 µM | > 30 µM | > 30 µM | > 30 µM | > 30 µM | 5.5 µM | 6.76 µM | > 30 µM | > 30 µM | > 30 µM | > 30 µM | > 30 µM
